The species entered for the test is Homo sapiens. Kind of test: In vitro inhibitory concentration against Chymotrypsin-like catalytic activity of the human 20S Proteasome. Type of test: functional.

Bounds are passed on as bounds.

For orientation: IC50 means the concentration that gives 50% inhibition. High values mean weaker potency in that assay, low ones greater potency in that assay. As to `COc1ccc(CN[C@@H](C(=O)N[C@H](C(=O)NCc2ccc(OC)cc2OC)C(C)C)[C@H](O)[C@H](Cc2ccccc2)NC(=O)[C@@H](NC(=O)OCc2ccccc2)C(C)C)cc1`, the concentration for half-maximal inhibition (IC50) was above 20 µM.

These data come from ChEMBL document CHEMBL1134067, “Modeling of the binding mode of a non-covalent inhibitor of the 20S proteasome. Application to structure-based analogue design” (Bioorg Med Chem Lett, 2001).
